# Calls of active or inactive are those of the source. The calls are words filed in the database; no cut-off is given here.
# How the values were obtained:
# [1] = Toxicity in Kunming mouse assessed as effect on locomotor activity at 88 nmol/kg, sc measured after 20 to 180 mins by open field test; assay type: organism-based; conditions: in vivo, time 20-180 min
# Mu-type opioid receptor [2] = target: T1, Mu-type opioid receptor (Homo sapiens, UniProt P35372); assay: Agonist activity at MOR (unknown origin) transfected in CHO cells co-expressing Galphaq15 assessed as increase in calcium mobilization by measuring maximal efficacy by Fluo-4AM dye based assay relative to control; assay type: functional, cell-based; conditions: filed as agonist
# T1 sequence (P35372 whole entry): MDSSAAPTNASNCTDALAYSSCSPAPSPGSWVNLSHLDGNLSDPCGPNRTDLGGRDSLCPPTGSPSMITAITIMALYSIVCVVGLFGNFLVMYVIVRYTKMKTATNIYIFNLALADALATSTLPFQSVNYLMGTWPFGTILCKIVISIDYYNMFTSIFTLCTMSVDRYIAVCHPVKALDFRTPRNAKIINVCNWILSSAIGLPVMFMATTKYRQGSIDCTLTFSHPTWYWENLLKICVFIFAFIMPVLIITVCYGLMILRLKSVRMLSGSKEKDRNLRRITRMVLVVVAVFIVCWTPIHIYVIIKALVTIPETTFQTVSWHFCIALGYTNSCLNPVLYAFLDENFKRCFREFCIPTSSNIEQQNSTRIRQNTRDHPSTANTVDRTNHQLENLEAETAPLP
# Mus musculus [3] = assay: Antinociceptive activity in icv dosed Kunming mouse assessed as changes in tail flick latency measured for 360 mins by tail-flick test; assay type: functional
# Mus musculus [4] = assay: Antinociceptive activity in Kunming mouse assessed as changes in tail flick latency by measuring maximal possible effect at 0.88 nmol/kg, sc measured after 60 mins by tail-flick test; assay type: functional; conditions: 1 h
# [5] = Induction of antinociceptive tolerance in Kunming mouse assessed as decrease in tail flick latency at 0.88 nmol/kg, sc administered once daily for 8 days and measured once daily by tail-flick test; assay type: toxicity, organism-based; conditions: in vivo, 192 h, time 8 day
# Mu-type opioid receptor [6] = target: T1, Mu-type opioid receptor; assay: Agonist activity at MOR (unknown origin) transfected in CHO cells co-expressing Galphaq15 assessed as increase in calcium mobilization by Fluo-4AM dye based assay; assay type: functional, cell-based
# Mus musculus [7] = assay: Antinociceptive activity in Kunming mouse assessed as changes in tail flick latency by measuring maximal possible effect at 0.88 nmol/kg, sc measured after 30 mins by tail-flick test; assay type: functional; conditions: 0.5 h
# Mus musculus [8] = assay: Antinociceptive activity in Kunming mouse assessed as changes in tail flick latency by measuring time duration of action at 1 to 10 pmol, icv measured for 360 mins by tail-flick test; assay type: functional; conditions: dose 1-10 pmol, 6 h
# [9] = Metabolic stability in mouse plasma assessed as degradation half life at 10 mM measured upto 480 mins by RP-HPLC analysis; assay type: ADME, cell-free
# [10] = Toxicity in sc dosed 16 hrs fasted Kunming mouse assessed as constipation by measuring inhibition of gastrointestinal transit administered for 15 mins followed by charcoal meal and measured after 30 mins; assay type: organism-based; conditions: in vivo, 0.75 h, time 45 min
# Mus musculus [11] = assay: Antinociceptive activity in Kunming mouse assessed as changes in tail flick latency by measuring maximal possible effect at 0.88 nmol/kg, sc measured after 240 mins by tail-flick test; assay type: functional; conditions: 4 h
# Mus musculus [12] = assay: Antinociceptive activity in Kunming mouse assessed as changes in tail flick latency at 0.88 nmol/kg, sc pretreated with naltrindole at 10 nmol, icv for 10 mins followed by compound addition and measured for 360 mins by tail-flick test; assay type: functional, organism-based
# Mus musculus [13] = assay: Antinociceptive activity in Kunming mouse assessed as changes in tail flick latency at 0.88 nmol/kg, sc pretreated with nor-binaltorphimine at 10 nmol, icv for 30 mins followed by compound addition and measured for 360 mins by tail-flick test; assay type: functional, organism-based
# Mus musculus [14] = assay: Antinociceptive activity in Kunming mouse assessed as changes in tail flick latency at 0.88 nmol/kg, sc pretreated with naloxone methiodide at 5 nmol, icv for 10 mins followed by compound addition and measured for 360 mins by tail-flick test; assay type: functional, organism-based
# Mus musculus [15] = assay: Antinociceptive activity in Kunming mouse assessed as changes in tail flick latency at 0.009 nmol/kg, sc pretreated with 1-adamantanecarbonyl-RF-NH2 at 10 nmol, icv for 5 mins followed by compound addition and measured for 360 mins by tail-flick test; assay type: functional, organism-based
# [16] = Toxicity in sc dosed Kunming mouse assessed as effect on naloxone-induced jumping response at 88 nmol/kg, sc administered every 8 hrs for 3 days followed by naloxone administration at 2 hrs post last dose and measured immediately by Nal-precipitated withdraw test; assay type: organism-based; conditions: in vivo, 74 h
# [17] = target: T2, Delta-type opioid receptor (Homo sapiens, UniProt P41143); assay: Agonist activity at DOR (unknown origin) transfected in CHO cells co-expressing Galphaq15 assessed as increase in calcium mobilization by Fluo-4AM dye based assay; assay type: functional, cell-based
# T2 sequence (P41143 whole entry): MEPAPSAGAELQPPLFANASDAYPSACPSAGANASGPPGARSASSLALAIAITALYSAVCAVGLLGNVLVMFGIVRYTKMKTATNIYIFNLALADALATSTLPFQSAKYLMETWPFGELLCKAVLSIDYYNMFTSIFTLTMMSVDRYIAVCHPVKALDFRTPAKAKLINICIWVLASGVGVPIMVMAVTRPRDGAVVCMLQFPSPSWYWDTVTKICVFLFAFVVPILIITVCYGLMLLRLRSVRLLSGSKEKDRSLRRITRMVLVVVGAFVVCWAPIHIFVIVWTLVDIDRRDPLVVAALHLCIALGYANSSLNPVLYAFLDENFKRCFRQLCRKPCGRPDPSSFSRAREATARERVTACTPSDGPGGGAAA
# Mus musculus [18] = assay: Antinociceptive activity in Kunming mouse assessed as changes in tail flick latency at 0.88 nmol/kg, sc pretreated with beta-funaltrexamine at 10 nmol, icv for 4 hrs followed by compound addition and measured for 360 mins by tail-flick test; assay type: functional, organism-based
# Mus musculus [19] = assay: Antinociceptive activity in Kunming mouse assessed as changes in tail flick latency by measuring maximal possible effect at 0.88 nmol/kg, sc measured after 120 mins by tail-flick test; assay type: functional; conditions: 2 h
# [20] = Agonist activity at NPFF1R (unknown origin) transfected in CHO cells co-expressing Galphaq15 assessed as increase in calcium mobilization by measuring maximal efficacy by Fluo-4AM dye based assay relative to control; assay type: functional, cell-based; conditions: Homo sapiens, filed as agonist
# [21] = target: T3, Kappa-type opioid receptor (Homo sapiens, UniProt P41145); assay: Agonist activity at KOR (unknown origin) transfected in CHO cells co-expressing Galphaq15 assessed as increase in calcium mobilization by measuring maximal efficacy by Fluo-4AM dye based assay relative to control; assay type: functional, cell-based; conditions: filed as agonist
# T3 sequence (P41145 whole entry): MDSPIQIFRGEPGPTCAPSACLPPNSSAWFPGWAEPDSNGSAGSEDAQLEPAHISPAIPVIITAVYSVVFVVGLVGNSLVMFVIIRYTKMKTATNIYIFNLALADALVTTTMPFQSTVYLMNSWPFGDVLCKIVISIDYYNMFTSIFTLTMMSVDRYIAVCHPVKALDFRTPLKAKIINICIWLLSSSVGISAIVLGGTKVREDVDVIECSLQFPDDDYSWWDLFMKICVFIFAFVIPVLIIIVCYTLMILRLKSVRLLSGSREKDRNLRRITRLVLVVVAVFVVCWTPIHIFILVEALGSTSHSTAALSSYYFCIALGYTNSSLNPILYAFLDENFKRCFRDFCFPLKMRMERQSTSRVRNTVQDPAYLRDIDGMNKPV
# [22] = Metabolic stability in mouse brain homogenate assessed as degradation half life at 10 mM measured upto 480 mins by RP-HPLC analysis; assay type: ADME, tissue-based
# Mus musculus [23] = assay: Antinociceptive activity in po dosed Kunming mouse assessed as changes in tail flick latency measured for 360 mins by tail-flick test; assay type: functional
# Mus musculus [24] = assay: Antinociceptive activity in Kunming mouse assessed as changes in tail flick latency by measuring maximal possible effect at 0.88 nmol/kg, sc measured after 20 mins by tail-flick test; assay type: functional
# [25] = target: T3, Kappa-type opioid receptor; assay: Agonist activity at KOR (unknown origin) transfected in CHO cells co-expressing Galphaq15 assessed as increase in calcium mobilization by Fluo-4AM dye based assay; assay type: functional, cell-based
# [26] = target: T4, Neuropeptide FF receptor 2 (Homo sapiens, UniProt Q9Y5X5); assay: Agonist activity at NPFF2R (unknown origin) transfected in HEK293 cells co-expressing Galphaq15 assessed as increase in calcium mobilization by Fluo-4AM dye based assay; assay type: functional, cell-based
# T4 sequence (Q9Y5X5 whole entry): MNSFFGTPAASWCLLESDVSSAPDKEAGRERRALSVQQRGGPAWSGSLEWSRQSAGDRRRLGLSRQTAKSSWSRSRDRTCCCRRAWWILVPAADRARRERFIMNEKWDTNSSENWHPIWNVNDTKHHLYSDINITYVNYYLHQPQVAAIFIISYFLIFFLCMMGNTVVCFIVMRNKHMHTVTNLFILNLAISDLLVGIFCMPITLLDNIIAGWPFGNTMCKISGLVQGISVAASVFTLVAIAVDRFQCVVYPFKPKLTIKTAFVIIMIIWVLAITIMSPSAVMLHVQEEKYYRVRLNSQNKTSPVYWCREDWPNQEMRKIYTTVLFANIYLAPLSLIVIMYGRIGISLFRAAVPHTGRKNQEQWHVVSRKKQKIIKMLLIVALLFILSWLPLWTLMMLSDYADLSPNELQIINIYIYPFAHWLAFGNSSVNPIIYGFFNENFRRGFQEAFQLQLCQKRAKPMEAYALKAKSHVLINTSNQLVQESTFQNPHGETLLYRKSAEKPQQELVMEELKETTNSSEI
# Mus musculus [27] = assay: Antinociceptive activity in Kunming mouse assessed as changes in tail flick latency by measuring time duration of action at 0.88 to 8.82 nmol/kg, po measured for 360 mins by tail-flick test; assay type: functional; conditions: dose 0.88-8.82 nmol/kg, 6 h
# [28] = Toxicity in Kunming mouse assessed as effect on motor coordination at 88 nmol/kg, sc measured after 15 to 45 mins by rotarod test; assay type: organism-based; conditions: in vivo, time 15-45 min
# Mus musculus [29] = assay: Antinociceptive activity in sc dosed Kunming mouse assessed as changes in tail flick latency measured after 10 to 360 mins by tail-flick test; assay type: functional; conditions: time 10-360 min
# [30] = Toxicity in Kunming mouse assessed as addiction behavior at 88 nmol/kg, sc administered for 3 days starting from day 2 and measured on day 5 by conditioned place preference test; assay type: organism-based; conditions: in vivo, 96 h, time 4 day
# Mus musculus [31] = assay: Antinociceptive activity in Kunming mouse assessed as changes in tail flick latency by measuring time duration of antinociceptive effect at 0.88 nmol/kg, sc by tail-flick test; assay type: functional
# [32] = Toxicity in Kunming mouse assessed as reduction in respiration frequency at 88 nmol/kg, sc measured upto 100 mins by whole-body plethysmography; assay type: organism-based; conditions: in vivo, 1.667 h
# [33] = target: T4, Neuropeptide FF receptor 2; assay: Agonist activity at NPFF2R (unknown origin) transfected in HEK293 cells co-expressing Galphaq15 assessed as increase in calcium mobilization by measuring maximal efficacy by Fluo-4AM dye based assay relative to control; assay type: functional, cell-based; conditions: filed as agonist
# [34] = target: T2, Delta-type opioid receptor; assay: Agonist activity at DOR (unknown origin) transfected in CHO cells co-expressing Galphaq15 assessed as increase in calcium mobilization by measuring maximal efficacy by Fluo-4AM dye based assay relative to control; assay type: functional, cell-based; conditions: filed as agonist
# Mus musculus [35] = assay: Antinociceptive activity in Kunming mouse assessed as changes in tail flick latency by measuring maximal possible effect at 26.7 nmol/kg, sc measured after 20 mins by tail-flick test; assay type: functional
# Mus musculus [36] = assay: Antinociceptive activity in Kunming mouse assessed as changes in tail flick latency by measuring time duration of antinociceptive effect at 26.7 nmol/kg, sc by tail-flick test; assay type: functional
# Mus musculus [37] = assay: Antinociceptive activity in Kunming mouse assessed as changes in tail flick latency by measuring maximal possible effect at 26.7 nmol/kg, sc measured after 30 mins by tail-flick test; assay type: functional; conditions: 0.5 h
# Mus musculus [38] = assay: Antinociceptive activity in Kunming mouse assessed as changes in tail flick latency by measuring maximal possible effect at 26.7 nmol/kg, sc measured after 120 mins by tail-flick test; assay type: functional; conditions: 2 h
# Mus musculus [39] = assay: Antinociceptive activity in Kunming mouse assessed as changes in tail flick latency by measuring maximal possible effect at 26.7 nmol/kg, sc measured after 240 mins by tail-flick test; assay type: functional; conditions: 4 h
# Mus musculus [40] = assay: Antinociceptive activity in Kunming mouse assessed as changes in tail flick latency by measuring maximal possible effect at 26.7 nmol/kg, sc measured after 60 mins by tail-flick test; assay type: functional; conditions: 1 h
# Mus musculus [41] = assay: Antinociceptive activity in Kunming mouse assessed as changes in tail flick latency at 26.7 nmol/kg, sc pretreated with naloxone methiodide at 5 nmol, icv for 10 mins followed by compound addition and measured for 360 mins by tail-flick test; assay type: functional, organism-based
smiles,measurement,setting,value
CN1C(=O)CNC(=O)[C@H](N[C@@H](Cc2ccc(O)cc2)C(=O)O)CCCC/C=C/C[C@@H](C(=O)N2CCC[C@H]2C(=O)N[C@@H](CCC(N)=O)C(=O)N[C@@H](CCCNC(=N)N)C(=O)N[C@@H](Cc2ccccc2)C(N)=O)NC(=O)[C@@H]1Cc1ccccc1,Activity,[1],Non-Toxic
same,Emax,Mu-type opioid receptor [2],95%
same,Activity,Mus musculus [3],Dose-Dependent Effect
same,ED50,Mus musculus [3]; 6 h,1.82 pmol
same,MPE,Mus musculus [4],80.5%
same,Activity,[5],Non-Toxic
same,EC50,Mu-type opioid receptor [6],15.9 nM
same,MPE,Mus musculus [7],77.2%
same,Time,Mus musculus [8],<=360 min
same,half-life at 10000 µM,[9],0.63 h
same,ED50,[10],95.4 nmol/kg
same,MPE,Mus musculus [11],43.5%
same,Activity,Mus musculus [12],Active
same,Activity,Mus musculus [13],inactive
same,Activity,Mus musculus [14],inactive
same,Activity,Mus musculus [15],Active
same,Activity,[16],Non-Toxic
same,EC50,[17],228 nM
same,Activity,Mus musculus [18],inactive
same,MPE,Mus musculus [19],72.8%
same,Emax,[20],88.1%
same,Emax,[21],106%
same,half-life at 10000 µM,[22],2.98 h
same,Activity,Mus musculus [23],Dose-Dependent Effect
same,ED50,Mus musculus [23]; 6 h,0.00195 µmol/kg
same,MPE,Mus musculus [24],89.9%
same,EC50,[25],346 nM
same,EC50,[26],33.1 nM
same,Time,Mus musculus [27],<=360 min
same,Activity,[28],Non-Toxic
same,Activity,Mus musculus [29],Dose-Dependent Effect
same,ED50,Mus musculus [29],2e-05 µmol/kg
same,Activity,[30],Non-Toxic
same,Time,Mus musculus [31],360 min
same,Activity,[32],Non-Toxic
same,Emax,[33],119%
same,Emax,[34],77.3%
CN1C(=O)CNC(=O)[C@H](N[C@@H](Cc2ccc(O)cc2)C(=O)O)CCC/C=C/C[C@@H](C(=O)N2CCC[C@H]2C(=O)N[C@@H](CCC(N)=O)C(=O)N[C@@H](CCCNC(=N)N)C(=O)N[C@@H](Cc2ccccc2)C(N)=O)NC(=O)[C@@H]1Cc1ccccc1,Emax,Mu-type opioid receptor [2],120%
same,MPE,Mus musculus [35],94.2%
same,EC50,Mu-type opioid receptor [6],38.9 nM
same,half-life at 10000 µM,[9],1.01 h
same,Time,Mus musculus [36],360 min
same,MPE,Mus musculus [37],96%
same,MPE,Mus musculus [38],65.5%
same,EC50,[17],27.7 nM
same,MPE,Mus musculus [39],44.7%
same,Emax,[20],129%
same,Emax,[21],98.3%
same,half-life at 10000 µM,[22],1.52 h
same,MPE,Mus musculus [40],81.9%
same,EC50,[25],124 nM
same,EC50,[26],52.3 nM
same,Activity,Mus musculus [41],inactive
same,Emax,[33],77.9%
same,Emax,[34],93%
